In patent publication US11738031B2, “Compositions and methods for preventing or treating muscle conditions” (The Board of Trustees of the Leland Stanford Junior …, priority 2017, dated 2023):

Assays:
Type in all cases: cell-based, mouse
aged MuSCs = assay: Aged MuSC proliferation in culture
Description: Muscle stem cell culture, treatment and lentiviral infection: Following isolation, we resuspended MuSCs in myogenic cell culture medium containing DMEM/F10 (50:50), 15% FBS, 2.5 ng ml^−1 fibroblast growth factor-2 (FGF-2 also known as bFGF) and 1% penicillin-streptomycin. We seeded MuSC suspensions at a density of 500 cells per cm^2 surface area. We maintained cell cultures at 37° C. in 5% CO2 and changed medium daily. For PGE2, 15-PGDH inhibitor and EP4 receptor antagonist treatment studies, we added 1-200 ng/ml Prostaglandin E2 (Cayman Chemical) (unless specified in the figure legends, 10 ng/ml was the standard concentration used), and/or 1 μM EP4 antagonist (ONO-AE3-208, Cayman Chemical), or 1 μM 15-PGDH inhibitor (SW033291, Cayman Chemical) to the MuSCs cultured on collagen coated dishes for the first 24 h. The cells were then trypsinized and cells reseeded onto hydrogels for an additional 6 days of culture. All treatments were compared to their solvent (DMSO) vehicle control. For stripped serum assays, we resuspended isolated MuSCs in medium containing DMEM/F10 (50:50), 15% charcoal stripped FBS (Gibco, cat #12676011), 2.5 ng ml^−1 bFGF and 1% penicillin-streptomycin. […]
Proliferation assays: To assay proliferation, we used three different assays (hemocytometer, VisionBlue, and EdU). […] For hemocytometer cell number count, we collected cells at indicated timepoints by incubation with 0.5% trypsin in PBS for 5 min at 37° C. and quantified them using a hemocytometer at least 3 times. Additionally, we used the VisionBlue Quick Cell Viability Fluorometric Assay Kit (BioVision, catalog #K303) as a readout for cell growth in culture. Briefly, we incubated MuSCs with 10% VisionBlue in culture medium for 3 h, and measured fluorescence intensity on a fluorescence plate reader (Infinite M1000 PRO, Tecan) at Ex=530-570 nm, Em=590-620 nm. […] We quantified EdU positive cells using the MetaMorph Image Analysis software (Molecular Devices). Data analyses were blinded, where researchers performing cell scoring were unaware of the treatment condition given to sample groups analyzed.

MuSCs = assay: VisionBlue metabolic viability dose-response assay; conditions: dose-response 1-200 ng/ml PGE2
Description: Proliferation assays: To assay proliferation, we used three different assays (hemocytometer, VisionBlue, and EdU). For each, we seeded MuSCs on flat hydrogels (hemocytometer and VisionBlue) or collagen-coated plates (EdU assay) at a density of 500 cells per cm^2 surface area. For hemocytometer cell number count, we collected cells at indicated timepoints by incubation with 0.5% trypsin in PBS for 5 min at 37° C. and quantified them using a hemocytometer at least 3 times. Additionally, we used the VisionBlue Quick Cell Viability Fluorometric Assay Kit (BioVision, catalog #K303) as a readout for cell growth in culture. Briefly, we incubated MuSCs with 10% VisionBlue in culture medium for 3 h, and measured fluorescence intensity on a fluorescence plate reader (Infinite M1000 PRO, Tecan) at Ex=530-570 nm, Em=590-620 nm. […] We quantified EdU positive cells using the MetaMorph Image Analysis software (Molecular Devices). Data analyses were blinded, where researchers performing cell scoring were unaware of the treatment condition given to sample groups analyzed.
To assay proliferation, we used three different assays (hemocytometer, VisionBlue, and EdU). […] For hemocytometer cell number count, we collected cells at indicated timepoints by incubation with 0.5% trypsin in PBS for 5 min at 37° C. and quantified them using a hemocytometer at least 3 times. […]

[1] = test system: cyclic AMP levels in MuSCs; assay: cAMP activity assay (cAMP-Glo); conditions: PGE2 10 ng/ml, 1 hr
Description: cAMP activity assay: MuSCs were treated with DMSO (vehicle) or PGE2 (10 ng/ml) for 1 h and cyclic AMP levels measured according to the cAMP-Glo Assay protocol optimized by the manufacturer (Promega). Each sample was assayed in triplicate and in two independent experiments.
MuSCs were treated with DMSO (vehicle) or PGE2 (10 ng/ml) for 1 h and cyclic AMP levels measured according to the cAMP-Glo Assay protocol optimized by the manufacturer (Promega). Each sample was assayed in triplicate and in two independent experiments.

With `CCCCC[C@H](O)/C=C/[C@H]1[C@H](O)CC(=O)[C@@H]1C/C=C\CCCC(=O)O` [PGE2, prostaglandin E2] the “aged MuSC proliferation in charcoal stripped serum medium” value (aged MuSCs; PGE2 10 ng/ml every two days for 7 days) was “rescued by addition of PGE2 alone”, the “aged MuSC proliferation and Pax7 expression after 1-day pulse” value (aged MuSCs; PGE2 10 ng/ml or SW033291 1 μM, 24 hr, assayed at day 7) was “characteristic increase in proliferation and maintenance of Pax7 expression” and the “lowest drug concentration that promotes a robust MuSC proliferation response” value (MuSCs) was 10 ng/mL. For the same compound, the “intracellular cAMP levels” value [1] was “elevated downstream intracellular cyclic AMP (cAMP) levels”.
